Laboratory results: patent US7803793B2, “Heterocyclic derived metalloprotease inhibitors” (Janssen Pharmaceutica NV, priority 2006, dated 2010)
Read-outs that look alike come from different tables or passages of the source.

Experiments:
MMP-9 = biological target: T1, MMP-9 (Homo sapiens, UniProt P14780); assay: MMP enzymatic assay (Trupoint peptide), MMP-9; assay type: biochemical
T1 construct: Human MMP-9 catalytic domain (aa 107-446)
Method: [formula] • 1) Prepare appropriate 1×MMP assay buffer from 10× stock. […] The plate setup should be as follows, using GM6001 as plate reference compound:
• 6) Serially dilute 10 μl down the plate to achieve 1:3 dilutions in subsequent wells. After each dilution, change pipette tips to avoid compound carryover. […] Will need 10 ml enzyme solution per plate. Add enzyme to plate, 20 μl per well. Incubate 1 hr.
Prepare 5 ml total per plate. Add 10 ul of substrate to each well to achieve a final concentration of 100 nM in well. […] Read in plate reader.
(§1) Analysis Specifications • Calculate average background value from substrate/assay buffer wells • Subtract this from entire plate • Calculate average of DMSO wells for each enzyme. This is the positive control, 100% value. • For each well, calculate percent of control by dividing well value by the average DMSO value obtained above. • Paste percent of control values into Graphpad Prism 4.0.

MMP-2 = biological target: T2, MMP-2 (Homo sapiens, UniProt P08253); assay: MMP enzymatic assay (Trupoint peptide), MMP-2; assay type: biochemical
T2 construct: Human MMP-2 full length (aa 1-660)
T2 sequence (P08253 30-660): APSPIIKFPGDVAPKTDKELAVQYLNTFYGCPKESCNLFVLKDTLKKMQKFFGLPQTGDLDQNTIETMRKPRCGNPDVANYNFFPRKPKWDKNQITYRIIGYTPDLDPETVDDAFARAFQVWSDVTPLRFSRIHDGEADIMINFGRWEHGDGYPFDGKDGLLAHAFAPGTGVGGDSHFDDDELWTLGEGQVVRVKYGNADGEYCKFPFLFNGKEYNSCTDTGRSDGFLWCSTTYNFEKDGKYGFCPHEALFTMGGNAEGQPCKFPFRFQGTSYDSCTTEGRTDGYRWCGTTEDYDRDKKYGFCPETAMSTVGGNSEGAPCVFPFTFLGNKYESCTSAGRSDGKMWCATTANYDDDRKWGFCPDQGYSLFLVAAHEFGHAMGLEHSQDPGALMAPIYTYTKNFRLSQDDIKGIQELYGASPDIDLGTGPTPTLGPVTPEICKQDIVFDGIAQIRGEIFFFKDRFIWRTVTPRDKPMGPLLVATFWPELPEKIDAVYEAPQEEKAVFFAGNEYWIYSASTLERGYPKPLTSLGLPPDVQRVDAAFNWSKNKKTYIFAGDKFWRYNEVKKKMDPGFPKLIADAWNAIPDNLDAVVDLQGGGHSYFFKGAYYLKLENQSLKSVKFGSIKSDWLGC
Method: [formula] • 1) Prepare appropriate 1×MMP assay buffer from 10× stock. […] Need to prepare a 2.5× concentration stock (2.5 μM) to achieve this concentration in 50 μl. Dilute compound to 2.5 mM in 100% DMSO (a 1:40 dilution), then dilute the 2.5 mM compound to 2.5 μM (1:1000) into 1× assay buffer. Make 1 ml 2.5 μM compound in assay buffer. • 4) Fill the rows B through P of a 384-well plate with assay buffer+0.1% DMSO. • 5) Add 30 ul of the 2.5 μM compound in assay buffer to the top row of the plate, doing each compound in triplicate. The plate setup should be as follows, using GM6001 as plate reference compound:
• 6) Serially dilute 10 μl down the plate to achieve 1:3 dilutions in subsequent wells. After each dilution, change pipette tips to avoid compound carryover. Discard the remaining 10 μl after diluting into the final row. • 7) Prepare enzyme dilutions at 2.5× of final desired concentration (see below). Will need 10 ml enzyme solution per plate. Add enzyme to plate, 20 μl per well. Incubate 1 hr.
• 8) Dilute the 500 μM Trupoint peptide 1:1000 into assay buffer to achieve a 5× working stock of 500 nM. Prepare 5 ml total per plate. Add 10 ul of substrate to each well to achieve a final concentration of 100 nM in well. Also prepare background subtraction wells by adding 10 μl 5× substrate to 40 μl assay buffer per well, typically do ˜32 wells. • 9) Incubate assay at room temperature for 15 min. Read in plate reader.
as §1

T1 sequence (P14780 107-446): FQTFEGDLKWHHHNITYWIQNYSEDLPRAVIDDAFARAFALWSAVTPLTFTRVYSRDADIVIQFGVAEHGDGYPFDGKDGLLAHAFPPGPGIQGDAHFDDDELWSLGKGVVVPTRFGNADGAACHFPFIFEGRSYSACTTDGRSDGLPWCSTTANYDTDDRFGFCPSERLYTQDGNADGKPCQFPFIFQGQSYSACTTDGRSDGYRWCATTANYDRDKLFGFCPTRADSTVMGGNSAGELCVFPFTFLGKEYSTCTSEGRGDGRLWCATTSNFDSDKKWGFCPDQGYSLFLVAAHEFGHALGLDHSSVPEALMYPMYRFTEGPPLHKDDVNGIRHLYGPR

| Compound | IC50 (MMP-9) | IC50 (MMP-2) | IC50 (MMP-2; read-out: MMP-2 nM IC50) |
| --- | --- | --- | --- |
| O=C1C(CS(=O)(=O)c2ccc(Oc3ccccc3)cc2)NCCCN1O (stereo not shown) [Compound 94] | 21.1 nM | 36.8 nM | – |
| O=C1[C@H](N(CCN2CCOCC2)S(=O)(=O)c2ccc(Br)s2)CC=CCN1O [Compound 18, (R)-5-Bromo-thiophene-2-sulfonic acid (1-hydroxy-2-oxo-2,3,4,7-tetrahydro-1H-azepin-3-yl)-(2-morpholin-4-yl-ethyl)-amide] | 14.3 nM | 48.1 nM | – |
| COc1ccc(Oc2ccc(S(=O)(=O)Cc3cccn(O)c3=O)cc2)cc1 [Compound 97] | 7.26 nM | – | 17.3 nM |
| O=C1[C@H](N(CCN2CCOCC2)S(=O)(=O)c2ccc(Oc3ccc(Cl)cc3)cc2)CC=CCN1O [Compound 11, 4-(4-Chloro-phenoxy)-N-(1-hydroxy-2-oxo-2,3,4,7-tetrahydro-1H-azepin-3-(R)-yl)-N-(2-morpholin-4-yl-ethyl)-benzenesulfonamide] | 0.2 nM | 0.31 nM | – |
| Cc1ccn(O)c(=O)c1N(C)S(=O)(=O)c1ccc(Oc2ccc(Cl)cc2)cc1 [Compound 31, 4-(4-Chloro-phenoxy)-N-(1-hydroxy-4-methyl-2-oxo-1,2-dihydro-pyridin-3-yl)-N-methyl-benzenesulfonamide] | – | – | 66.2 nM |
| CN(c1cccn(O)c1=O)S(=O)(=O)c1ccc(Oc2ccc(C(F)(F)F)cc2)cc1 [Compound 30, N-(1-Hydroxy-2-oxo-1,2-dihydro-pyridin-3-yl)-N-methyl-4-(4-trifluoromethyl-phenoxy)-benzenesulfonamide] | 32.7 nM | – | – |
| O=c1c(NS(=O)(=O)c2ccc(-c3ccc(Cl)cc3)cc2)cccn1O [Compound 40, 4′-Chloro-biphenyl-4-sulfonic acid (1-hydroxy-2-oxo-1,2-dihydro-pyridin-3-yl)-amide] | > 1000 nM | > 1000 nM | – |
| Cc1ccc(Oc2ccc(N(Cc3cc(C)cn(O)c3=O)S(C)(=O)=O)cc2)cc1 [Compound 51, N-(1-Hydroxy-5-methyl-2-oxo-1,2-dihydro-pyridin-3-ylmethyl)-N-(4-p-tolyloxy-phenyl)-methanesulfonamide] | 43.9 nM | 241 nM | – |
| O=c1c(N(CCN2CCOCC2)S(=O)(=O)c2ccc(Oc3ccc(Cl)cc3)cc2)cccn1O [Compound 87, 4-(4-Chloro-phenoxy)-N-(1-hydroxy-2-oxo-1,2-dihydro-pyridin-3-yl)-N-(2-morpholin-4-yl-ethyl)-benzenesulfonamide] | 4.2 nM | – | 5 nM |
| CN1CCN(CCN(c2cccn(O)c2=O)S(=O)(=O)c2ccc(Oc3ccc(Cl)cc3)cc2)CC1 [Compound 99] | 1.3 nM | – | 1.7 nM |
| CC(C)CN(c1cccn(O)c1=O)S(=O)(=O)c1ccc(Oc2ccccc2)cc1 [Compound 24, N-(1-Hydroxy-2-oxo-1,2-dihydro-pyridin-3-yl)-N-isobutyl-4-phenoxy-benzenesulfonamide] | 57.5 nM | 41 nM | – |
| O=C1C(NS(=O)(=O)c2ccc(Oc3ccc(Cl)cc3)cc2)CCCCN1O (stereo not shown) [Compound 92] | 5.9 nM | 3.7 nM | – |
| 1-Hydroxy-3-(4′-trifluoromethoxy-biphenyl-4-sulfonyl)-azepan-2-one [Compound 85] | > 1000 nM | – | > 1000 nM |
| O=C(CN(c1cccn(O)c1=O)S(=O)(=O)c1ccc(Oc2ccc(Cl)cc2)cc1)N1CCOCC1 [Compound 35, 4-(4-Chloro-phenoxy)-N-(1-hydroxy-2-oxo-1,2-dihydro-pyridin-3-yl)-N-(2-morpholin-4-yl-2-oxo-ethyl)-benzenesulfonamide] | 4.84 nM | – | 4.93 nM |
| N-(1-Hydroxy-2-oxo-1,2-dihydro-pyridin-3-yl)-N-methyl-4-p-tolyloxy-benzene-sulfonamide [Compound 26] | 3.4 nM | – | 6.1 nM |
| O=C1[C@H](NS(=O)(=O)c2ccc(Oc3ccc(C(F)(F)F)cc3)cc2)CC=CCN1O [Compound 5, N-(1-Hydroxy-2-oxo-2,3,4,7-tetrahydro-H-azepin-3-(R)-yl)-4-(4-trifluoro-methyl-phenoxy)-benzenesulfonamide] | 2.04 nM | 1.79 nM | – |
| CC1CN(CC2=CC[C@@H](NS(=O)(=O)c3ccc(Oc4ccc(Cl)cc4)cc3)C(=O)N(O)C2)CC(C)O1 (stereo partly drawn) [Compound 21, (R)-4-(4-Chloro-phenoxy)-N-[6-(2,6-dimethyl-morpholin-4-ylmethyl)-1-hydroxy-2-oxo-2,3,4,7-tetrahydro-1H-azepin-3-yl]-benzenesulfonamide] | 0.89 nM | 1.25 nM | – |
| Cc1ccc(-c2ccc(S(=O)(=O)N[C@@H]3CC=CCN(O)C3=O)s2)cc1 [Compound 90] | 8.6 nM | 4.2 nM | – |
| O=C1[C@H](NS(=O)(=O)c2ccc(Br)s2)CC=CCN1O [Compound 16, 5-Bromo-thiophene-2-sulfonic acid (1-hydroxy-2-oxo-2,3,4,7-tetrahydro-1H-azepin-3-(R)-yl)-amide] | 28.4 nM | 43 nM | – |
| O=C1C(S(=O)(=O)c2ccc(-c3nc4cc(F)ccc4[nH]3)cc2)CCCCN1O (stereo not shown) [Compound 78, 3-[4-(5-Fluoro-1H-benzoimidazol-2-yl)-benzenesulfonyl]-1-hydroxy-azepan-2-one] | 846 nM | – | 377 nM |
| Cc1ccc(Oc2ccc(N(Cc3cc(-c4ccccc4)cn(O)c3=O)S(C)(=O)=O)cc2)cc1 [Compound 52, N-(1-Hydroxy-2-oxo-5-phenyl-1,2-dihydro-pyridin-3-ylmethyl)-N-(4-p-tolyloxy-phenyl)-methanesulfonamide] | 317 nM | 914 nM | – |
| O=C1C(S(=O)(=O)c2ccc(Br)cc2)CCCCN1O (stereo not shown) [Compound 81, 3-(4-Bromo-benzenesulfonyl)-1-hydroxy-azepan-2-one] | > 1000 nM | > 1000 nM | – |
| O=C1[C@H](NS(=O)(=O)c2ccc(N3CCC(c4ccccc4)CC3)cc2)CC=CCN1O [Compound 9, N-(1-Hydroxy-2-oxo-2,3,4,7-tetrahydro-1H-azepin-3-(R)-yl)-4-(4-phenyl-piperidin-1-yl)-benzenesulfonamide] | > 1000 nM | > 1000 nM | – |
| CN(c1cc(Br)cn(O)c1=O)S(=O)(=O)c1ccc(Oc2ccc(Cl)cc2)cc1 [Compound 32, N-(5-Bromo-1-hydroxy-2-oxo-1,2-dihydro-pyridin-3-yl)-4-(4-chloro-phenoxy)-N-methyl-benzenesulfonamide] | – | – | 662 nM |
| Cc1ccc(C#Cc2ccc(N(Cc3cccn(O)c3=S)S(C)(=O)=O)cc2)cc1 [Compound 56, N-(1-Hydroxy-2-thioxo-1,2-dihydro-pyridin-3-ylmethyl)-N-(4-p-tolylethynyl-phenyl)-methanesulfonamide] | > 10000 nM | > 10000 nM | – |
| Cc1ccc(S(=O)(=O)Cn2cccc(O)c2=O)cc1 [Compound 60, 3-Hydroxy-1-(toluene-4-sulfonylmethyl)-1H-pyridin-2-one] | 1070 nM | – | 468 nM |
| N#Cc1ccc(-c2ccc(S(=O)(=O)C3CCCCN(O)C3=O)cc2)cc1 (stereo not shown) [Compound 84, 4′-(1-Hydroxy-2-oxo-azepane-3-sulfonyl)-biphenyl-4-carbonitrile] | > 1000 nM | > 1000 nM | – |
| O=C1[C@H](NS(=O)(=O)c2ccc(Oc3ccc(Cl)cc3)cc2)CCCN1O [Compound 57, (R)-4-(4-Chloro-phenoxy)-N-(1-hydroxy-2-oxo-piperidin-3-yl)-benzene-sulfonamide] | 57.9 nM | – | – |
